ChEMBL document CHEMBL1156250, “Novel three-component domino reactions of ketones, isatin and amino acids: synthesis and discovery of antimycobacterial activity of highly functionalised novel dispiropyrrolidines” (2010)
In brackets after ≈: the same amount, converted by molar mass.

Assays:
Assay type in all cases: functional
[1] = test system: Mycobacterium tuberculosis; test: Antimycobacterial activity against Mycobacterium tuberculosis H37Rv by agar dilution method
[2] = test system: Mycobacterium tuberculosis; test: Ratio of compound MIC over ethambutol MIC for Mycobacterium tuberculosis H37Rv
[3] = test system: Mycobacterium tuberculosis; test: Ratio of compound MIC over pyrazinamide MIC for Mycobacterium tuberculosis H37Rv

Structure (SMILES)	MIC [1] [µM]	other results
CN1CCC2(CCCCC2=O)C12C(=O)Nc1ccc(Br)cc12 (stereo not drawn)	4.29 (≈ 1.56 µg/mL)	–
NNC(=O)c1ccncc1 [ISONIAZID]	0.36 (≈ 0.0494 µg/mL)	–
CC(C)c1cccc2c1NC(=O)C21N(C)CCC12CCCCCC2=O (stereo not drawn)	73.4 (≈ 25 µg/mL)	–
CN1CCC(=O)C2(C1)C(c1ccccc1)C(c1ccccc1)NC21C(=O)Nc2ccc(Cl)cc21 (stereo not drawn)	26.5 (≈ 12.5 µg/mL)	–
CN1CCC2(CCCC2=O)C12C(=O)Nc1ccc(Br)cc12 (stereo not drawn)	8.96 (≈ 3.13 µg/mL)	–
CN1CCC2(CCCC2=O)C12C(=O)Nc1ccc(Cl)cc12 (stereo not drawn)	41 (≈ 12.5 µg/mL)	–
CC[C@@H](CO)NCCN[C@@H](CC)CO [ETHAMBUTOL]	7.64 (≈ 1.56 µg/mL)	–
O=C1Nc2ccccc2C12NC(c1ccccc1)C(c1ccccc1)C21CCCCC1=O (stereo not drawn)	118 (≈ 50 µg/mL)	–
Cc1ccc2c(c1)C1(C(=O)N2)N(C)CCC12CCCCCC2=O (stereo not drawn)	40 (≈ 12.5 µg/mL)	–
O=C1Nc2ccccc2C12C1CCCN1C1(C(=O)Nc3ccccc31)C1CCCN12 (stereo not drawn)	125 (≈ 50 µg/mL)	–
CN1CCC2(CCCCC2=O)C12C(=O)Nc1ccc(Cl)cc12 (stereo not drawn)	39.2 (≈ 12.5 µg/mL)	–
CN1CCC(=O)C2(C1)C(c1ccccc1)C(c1ccccc1)NC21C(=O)Nc2ccc(Br)cc21 (stereo not drawn)	6.06 (≈ 3.13 µg/mL)	–
CN1CCC2(CN(N=O)CCC2=O)C12C(=O)Nc1ccc(Br)cc12 (stereo not drawn)	1.98 (≈ 0.779 µg/mL)	Ratio [2]: 3.86; Ratio [3]: 25.64
O=C1Nc2ccccc2C12NC(c1ccccc1)C(c1ccccc1)C21CCCC1=O (stereo not drawn)	61.2 (≈ 25 µg/mL)	–
CN1CCC2(CCCCCC2=O)C12C(=O)Nc1ccc(Cl)cc12 (stereo not drawn)	18.8 (≈ 6.25 µg/mL)	–
CN1CCC2(CCCCCC2=O)C12C(=O)Nc1ccc(Br)cc12 (stereo not drawn)	4.13 (≈ 1.56 µg/mL)	–
CC(C)c1cccc2c1NC(=O)C21NC(c2ccccc2)C(c2ccccc2)C12CN(c1ccccc1)CCC2=O (stereo not drawn)	22.5 (≈ 12.2 µg/mL)	–
O=C1Nc2ccc(Br)cc2C12NC(c1ccccc1)C(c1ccccc1)C21CN(c2ccccc2)CCC1=O (stereo not drawn)	10.6 (≈ 6.1 µg/mL)	–
CC(C)c1cccc2c1NC(=O)C21N(C)CCC12CCCC2=O (stereo not drawn)	160 (≈ 50 µg/mL)	–
O=C1Nc2ccc(Cl)cc2C12NC(c1ccccc1)C(c1ccccc1)C21CN(c2ccccc2)CCC1=O (stereo not drawn)	22.8 (≈ 12.2 µg/mL)	–
Cc1ccc2c(c1)C1(NC(c3ccccc3)C(c3ccccc3)C13CN(c1ccccc1)CCC3=O)C(=O)N2 (stereo not drawn)	23.7 (≈ 12.2 µg/mL)	–

Structure (SMILES)	MIC [1] [µM]	other results
Cc1ccc2c(c1)C1(C(=O)N2)N(C)CCC12CN(C)CCC2=O (stereo not drawn)	19.9 (≈ 6.25 µg/mL)	–
CN1CCC(=O)C2(CCN(C)C23C(=O)Nc2ccc(Br)cc23)C1 (stereo not drawn)	33 (≈ 12.5 µg/mL)	–
NC(=O)c1cnccn1 [PYRAZINAMIDE]	50.8 (≈ 6.25 µg/mL)	–
CC(C)c1cccc2c1NC(=O)C21NC(c2ccccc2)C(c2ccccc2)C12CCCCC2=O (stereo not drawn)	13.4 (≈ 6.25 µg/mL)	–
CC(C)c1cccc2c1NC(=O)C21NC(c2ccccc2)C(c2ccccc2)C12CN(C)CCC2=O (stereo not drawn)	26.1 (≈ 12.5 µg/mL)	–
CC(C)c1cccc2c1NC(=O)C21N(C)CCC12CN(N=O)CCC2=O (stereo not drawn)	8.78 (≈ 3.13 µg/mL)	–
CN1CCC2(CN(N=O)CCC2=O)C12C(=O)Nc1ccc(Cl)cc12 (stereo not drawn)	4.47 (≈ 1.56 µg/mL)	–
CC(C)c1cccc2c1NC(=O)C21N(C)CCC12CN(C)CCC2=O (stereo not drawn)	36.6 (≈ 12.5 µg/mL)	–
CC(C)c1cccc2c1NC(=O)C21NC(c2ccccc2)C(c2ccccc2)C12CCCC2=O (stereo not drawn)	27.7 (≈ 12.5 µg/mL)	–
CC(C)c1cccc2c1NC(=O)C21N(C)CCC12CCCCC2=O (stereo not drawn)	38.3 (≈ 12.5 µg/mL)	–
O=C1Nc2ccc(Cl)cc2C12NC(c1ccccc1)C(c1ccccc1)C21CCCCC1=O (stereo not drawn)	13.7 (≈ 6.25 µg/mL)	–
Cc1ccc2c(c1)C1(NC(c3ccccc3)C(c3ccccc3)C13CN(C)CCC3=O)C(=O)N2 (stereo not drawn)	55.4 (≈ 25 µg/mL)	–
Cc1ccc2c(c1)C1(NC(c3ccccc3)C(c3ccccc3)C13CCCCC3=O)C(=O)N2 (stereo not drawn)	115 (≈ 50 µg/mL)	–
Cc1ccc2c(c1)C1(C(=O)N2)N(C)CCC12CCCCC2=O (stereo not drawn)	41.9 (≈ 12.5 µg/mL)	–
CN1CCC(=O)C2(CCN(C)C23C(=O)Nc2ccc(Cl)cc23)C1 (stereo not drawn)	37.5 (≈ 12.5 µg/mL)	–
O=C1Nc2ccc(Br)cc2C12C1CCCN1C1(C(=O)Nc3ccc(Br)cc31)C1CCCN12 (stereo not drawn)	5.61 (≈ 3.13 µg/mL)	–
O=C1Nc2ccc(Br)cc2C12NC(c1ccccc1)C(c1ccccc1)C21CCCCC1=O (stereo not drawn)	6.24 (≈ 3.13 µg/mL)	–
O=C1Nc2ccc(Cl)cc2C12C1CCCN1C1(C(=O)Nc3ccc(Cl)cc31)C1CCCN12 (stereo not drawn)	26.6 (≈ 12.5 µg/mL)	–
Cc1ccc2c(c1)C1(C(=O)N2)C2CCCN2C2(C(=O)Nc3ccc(C)cc32)C2CCCN21 (stereo not drawn)	29.2 (≈ 12.5 µg/mL)	–
Cc1ccc2c(c1)C1(C(=O)N2)N(C)CCC12CN(N=O)CCC2=O (stereo not drawn)	4.75 (≈ 1.56 µg/mL)	–
